Test [1] deals with T1, RpalOR1 (Rhynchophorus palmarum, UniProt A0A8A5RCH6).
T1 sequence (A0A8A5RCH6 1-411): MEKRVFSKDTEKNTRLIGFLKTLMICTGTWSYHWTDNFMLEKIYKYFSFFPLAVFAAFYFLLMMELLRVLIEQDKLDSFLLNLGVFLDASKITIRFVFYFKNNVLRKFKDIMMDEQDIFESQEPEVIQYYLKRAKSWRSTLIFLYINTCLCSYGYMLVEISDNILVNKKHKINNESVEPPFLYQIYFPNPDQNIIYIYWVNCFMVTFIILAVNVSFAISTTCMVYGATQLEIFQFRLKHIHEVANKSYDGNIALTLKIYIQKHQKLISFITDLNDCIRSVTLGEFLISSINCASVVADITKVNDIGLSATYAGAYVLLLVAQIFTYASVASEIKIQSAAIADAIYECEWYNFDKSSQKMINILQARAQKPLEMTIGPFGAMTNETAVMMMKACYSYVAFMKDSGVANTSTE
T1 sequence (Q9VNB5 1-486 partner): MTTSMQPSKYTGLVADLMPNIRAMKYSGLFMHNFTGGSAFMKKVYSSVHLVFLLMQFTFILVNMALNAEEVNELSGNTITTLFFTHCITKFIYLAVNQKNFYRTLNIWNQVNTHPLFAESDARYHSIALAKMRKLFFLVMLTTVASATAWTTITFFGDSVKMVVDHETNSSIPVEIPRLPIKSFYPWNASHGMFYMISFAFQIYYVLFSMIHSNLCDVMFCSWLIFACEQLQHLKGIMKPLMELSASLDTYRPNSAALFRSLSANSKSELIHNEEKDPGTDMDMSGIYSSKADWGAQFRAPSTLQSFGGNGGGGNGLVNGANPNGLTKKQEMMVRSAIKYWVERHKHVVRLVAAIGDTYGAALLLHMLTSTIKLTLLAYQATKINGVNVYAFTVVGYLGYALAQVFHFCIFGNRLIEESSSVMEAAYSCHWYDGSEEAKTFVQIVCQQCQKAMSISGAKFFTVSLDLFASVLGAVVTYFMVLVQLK
Briefly: single-sensillum recording, Drosophila at1 OSNs. Type of test: cell-based. The following applies: 500 ms, agonist.

The target of a further test is T2, RferOR1 (Rhynchophorus ferrugineus, UniProt A0A4P8W8S8).
T2 sequence (A0A4P8W8S8 1-411): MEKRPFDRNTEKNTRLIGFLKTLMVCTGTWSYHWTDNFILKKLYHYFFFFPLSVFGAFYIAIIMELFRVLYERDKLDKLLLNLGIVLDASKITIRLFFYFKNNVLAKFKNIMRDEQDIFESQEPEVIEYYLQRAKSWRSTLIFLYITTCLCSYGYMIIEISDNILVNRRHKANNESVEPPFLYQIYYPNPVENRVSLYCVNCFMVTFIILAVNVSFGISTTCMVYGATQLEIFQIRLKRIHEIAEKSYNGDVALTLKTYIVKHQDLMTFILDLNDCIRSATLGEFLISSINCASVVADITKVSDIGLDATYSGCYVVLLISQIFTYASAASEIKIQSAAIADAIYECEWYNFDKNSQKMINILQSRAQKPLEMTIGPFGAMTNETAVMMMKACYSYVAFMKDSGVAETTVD
T2 sequence (Q9VNB5 1-486 partner): T1 sequence (Q9VNB5 1-486 partner)
Briefly: single-sensillum recording, Drosophila at1 OSNs. It counts as cell-based. The following applies: […] µg in paraffin oil on stimulus cartridge, […] ms; agonist.

Test [2] has as its target T1, RpalOR1. Briefly: single-sensillum recording, Drosophila at1 OSNs. Type of test: cell-based. To be noted: 1 µg in hexane on stimulus cartridge, 500 ms; agonist.
Test [3] deals with T1, RpalOR1. To be noted: 100 µg in paraffin oil on stimulus cartridge, 500 ms; agonist.
Where [4] appears, read: 1 µg in hexane on stimulus cartridge.
Setting [5] is: 100 µg in paraffin oil on stimulus cartridge.

`CCCCC(=O)CCCC` [nonan-5-one]: the “single-sensillum recording, Drosophila at1 OSNs” value (“single-sensillum recording” for short) at RpalOR1 [1] (setting [4]) was “The two last agonists were (E)‑oct-2-en-4-ol and nonan-5-one”.

As for `CCCCCC(=O)OCC` [ethyl hexanoate], the “single-sensillum recording” value at RferOR1 is “propyl butyrate, butyl butyrate, ethyl valerate and ethyl hexanoate”; at RpalOR1 [1] (setting [5]), “propyl butyrate, butyl butyrate, ethyl valerate and ethyl hexanoate”.

For `CCCCC(=O)C(C)CCC` (stereo not drawn) [ferrugineone, 4-methylnonan-5-one], the “average response at 1 μg” value on RpalOR1 [2] was 103 action potentials per second. On to `CCCCC(O)C(C)CC` (stereo not drawn) [phoenicol, 3-methyloctan-4-ol], for which the “single-sensillum recording” value on RpalOR1 [1] (setting [4]) is listed as “RpalOR1 was activated by phoenicol as well as nonan-5-ol”. The same measure, in the same setting: the same measure for `CCCC(=O)C(C)CCC` (stereo not drawn) [5-methyloctan-4-one]: “We also found a response to 5-methyloctan-4-one”. With `CCCCC(O)C(C)CCC` (stereo not drawn) [ferrugineol, 4-methylnonan-5-ol], at RpalOR1 [2], the “average response at 1 μg” value is 112 action potentials per second. On to `CCCCOC(=O)CCC` [butyl butyrate], for which the “single-sensillum recording” value is listed as “significantly activated by the same palm tree esters: propyl butyrate, butyl butyrate” on RferOR1 and “significantly activated by the same palm tree esters: propyl butyrate, butyl butyrate” at RpalOR1 [1] (setting [5]). With `C/C=C/C(O)C(C)CC` (stereo not drawn) [(E)−5-methylhept-2-en-4-ol], the “average response at 1 μg” value on RpalOR1 [2] is 27 action potentials per second. With `CCCCC(=O)OCC` [ethyl valerate], the “single-sensillum recording” value at RpalOR1 [1] (setting [5]) is “propyl butyrate, butyl butyrate, ethyl valerate and ethyl hexanoate”. Turning to `C/C=C/C(O)CCCC` (stereo not drawn) [(E)‑oct-2-en-4-ol], the “single-sensillum recording” value on RpalOR1 [1] (setting [4]) is “The two last agonists were (E)‑oct-2-en-4-ol and nonan-5-one”. Turning to `CCCOC(=O)CCC` [propyl butyrate], the “single-sensillum recording” value at RferOR1 was “both RpalOR1 and RferOR1 were significantly activated by the same palm tree esters: propyl butyrate”. The “average response at 100 μg” value on RpalOR1 [3] is reported as 63 action potentials per second.

For `CCCCC(O)CCCC` [nonan-5-ol], the “single-sensillum recording” value at RpalOR1 [1] (setting [4]) is reported as “RpalOR1 was activated by phoenicol as well as nonan-5-ol”.

The values above are taken from article PMC11345504 (Current Research in Insect Science, 2024).
